Assay results taken from ChEMBL document CHEMBL1121661, “Synthesis and antitumor activity of a series of sulfone analogues of 1,4-naphthoquinone” (1981).

Key:
Format in all cases: functional
Mus musculus [1] = experiment: Percent inhibition of Ehrlich ascites carcinoma growth at 10 mg/kg per day
Mus musculus [2] = experiment: Effect on P-388 lymphocytic leukemia growth at a given dose 10 mg/kg per day ip expressed as average survival days of treated mice; conditions: route intraperitoneal
Mus musculus [3] = experiment: Percent packed cell volume at 10 mg/kg per day
Mus musculus [4] = experiment: Effect on P-388 lymphocytic leukemia growth at a given dose 10 mg/kg per day ip expressed as ratio of treated / control (T/C>125 is required for significant activity); conditions: route intraperitoneal
Mus musculus [5] = experiment: Percent packed cell volume at 10 mg/kg per day per mouse; parameters: unit not given here
Mus musculus [6] = experiment: Effect on Ehrlich ascites carcinoma growth in CF1 mice at 10 mg/kg per day ip survival at day 9; 8/8; conditions: route intraperitoneal
Mus musculus [7] = experiment: Effect on Ehrlich ascites carcinoma growth in CF1 mice at 10 mg/kg per day ip survival at day 9; 6/6; conditions: route intraperitoneal
Mus musculus [8] = experiment: Effect of compound on P-388 lymphocytic leukemia growth at a given dose 15 mg/kg per day ip expressed as average survival days of treated mice; conditions: route intraperitoneal
Mus musculus [9] = experiment: Effect of compound on P-388 lymphocytic leukemia growth at a given dose 15 mg/kg per day ip expressed as ratio of treated / control (T/C>125 is required for significant activity); conditions: route intraperitoneal
Mus musculus [10] = experiment: Effect of compound on P-388 lymphocytic leukemia growth at a given dose 10 mg/kg per day ip expressed as ratio of treated / control; conditions: route intraperitoneal
Mus musculus [11] = experiment: Percent inhibition of Ehrlich ascites carcinoma growth at 5 (mg/kg)/day
Mus musculus [12] = experiment: Percent packed cell volume at 5 (mg/kg)/day
Mus musculus [13] = experiment: Percent packed cell volume at 5 (mg/kg)/day per mouse
Mus musculus [14] = experiment: Effect of compound on Ehrlich ascites carcinoma growth in CF1 mice at 10 mg/kg per day ip survival at day 9; 3/8; conditions: route intraperitoneal
Mus musculus [15] = experiment: Effect of compound on Ehrlich ascites carcinoma growth in CF1 mice at 5 mg/kg per day ip survival at day 9; 5/6; conditions: route intraperitoneal
Mus musculus [16] = experiment: Effect of compound on P-388 lymphocytic leukemia growth at a given dose 2.5 mg/kg per day ip expressed as average survival days of treated mice; conditions: route intraperitoneal
Mus musculus [17] = experiment: Effect of compound on P-388 lymphocytic leukemia growth at a given dose 4 mg/kg per day ip expressed as average survival days of treated mice; conditions: route intraperitoneal
Mus musculus [18] = experiment: Effect of compound on P-388 lymphocytic leukemia growth at a given dose 5 mg/kg per day ip expressed as average survival days of treated mice; conditions: route intraperitoneal
Mus musculus [19] = experiment: Effect of compound on P-388 lymphocytic leukemia growth at a given dose 6.25 mg/kg per day ip expressed as ratio of treated / control (T/C>125 is required for significant activity); conditions: route intraperitoneal
Mus musculus [20] = experiment: Effect of compound on P-388 lymphocytic leukemia growth at a given dose 12.50 mg/kg per day ip expressed as ratio of treated / control (T/C>125 is required for significant activity); conditions: route intraperitoneal
Mus musculus [21] = experiment: Effect of compound on P-388 lymphocytic leukemia growth at a given dose 25 mg/kg per day ip expressed as ratio of treated / control (T/C>125 is required for significant activity); conditions: route intraperitoneal
Mus musculus [22] = experiment: Effect of compound on P-388 lymphocytic leukemia growth at a given dose 10 mg/kg per day ip expressed as ratio of treated / control (T/C>125 is required for significant activity); conditions: route intraperitoneal
Mus musculus [23] = experiment: Effect of compound on P-388 lymphocytic leukemia growth at a given dose 5 mg/kg per day ip expressed as ratio of treated / control (T/C>125 is required for significant activity); conditions: route intraperitoneal
Mus musculus [24] = experiment: Effect of compound on P-388 lymphocytic leukemia growth at a given dose 15 mg/kg per dayip expressed as average survival days of treated mice
Mus musculus [25] = experiment: Effect of compound on P-388 lymphocytic leukemia growth at a given dose 15 mg/kg per day ip expressed as ratio of treated / control; conditions: route intraperitoneal
Mus musculus [26] = experiment: Effect of compound on Ehrlich ascites carcinoma growth in CF1 mice at a dose ((20 mg/kg)/day) ip survival at day 9 packed cell volume as a percent
Mus musculus [27] = experiment: Effect of compound on Ehrlich ascites carcinoma growth in CF1 mice at a dose ((20 mg/kg)/day) ip survival at day 9 packed cell volume
Mus musculus [28] = experiment: Effect of compound on Ehrlich ascites carcinoma growth in CF1 mice at 20 mg/kg per day ip survival at day 9; 8/8; conditions: route intraperitoneal
Mus musculus [29] = experiment: Effect of compound on P-388 lymphocytic leukemia growth at a given dose 25 mg/kg per day ip expressed as average survival days of treated mice; conditions: route intraperitoneal
Mus musculus [30] = experiment: Percent inhibition of Ehrlich ascites carcinoma growth at 200 mg/kg per day
Mus musculus [31] = experiment: Percent packed cell volume at 200 mg/kg per day
Mus musculus [32] = experiment: Percent packed cell volume at 200 mg/kg per day per mouse
Mus musculus [33] = experiment: Effect of compound on Ehrlich ascites carcinoma growth in CF1 mice at 200 mg/kg per day ip survival at day 9; 6/6; conditions: route intraperitoneal

Structure (SMILES)	inhibition in vivo at 10 mg/kg/day (Mus musculus [1]) [%]	Days (Mus musculus [2])	% (Mus musculus [3])	Volume (Mus musculus [5])	Survivors at day 9 (Mus musculus [6])	Survivors at day 9 (Mus musculus [7])	other results
O=C1C(CCl)=C(CCl)C(=O)c2ccccc21	98.8	12.2	5	0.31	8	–	T/C (Mus musculus [4]): 128
O=C1C(CN(CCCl)CCCl)=CS(=O)(=O)c2ccccc21	99.9	–	2	0.01	–	6	–
CCC(=O)OCC1=CS(=O)(=O)c2ccccc2C1=O	99.5	–	0.07	0.23	–	6	–
O=C(OCC1=CS(=O)(=O)c2ccccc2C1=O)c1ccccc1	0	–	33.7	2.7	8	–	–
O=C1C(COC(=O)N(C(=O)Nc2ccccc2)c2ccccc2)=CS(=O)(=O)c2ccccc21	69.3	–	38	0.58	–	6	–
O=C1c2ccccc2S(=O)(=O)CC1CCl (centres undefined)	36.3	–	43.5	1.84	8	–	Days (Mus musculus [8]): 10; T/C (Mus musculus [9]): 105
O=C1C(CNc2ccccc2)=CS(=O)(=O)c2ccccc21	0	–	40.2	2.8	8	–	–
O=C1C(Br)=C(c2ccccc2)S(=O)(=O)c2ccccc21	0.4	11.4	30.6	4.06	8	–	T/C (Mus musculus [10]): 120
COCCOCC1=CS(=O)(=O)c2ccccc2C1=O	98.2	–	8.2	0.07	–	6	–
O=C1C(CO)=CS(=O)(=O)c2ccccc21	99.3	–	0.7	0.4	–	–	Inhibition (Mus musculus [11]): 95.6%; % (Mus musculus [12]): 4.8; Volume (Mus musculus [13]): 0.07; Survivors at day 9 (Mus musculus [14]): 3; Survivors at day 9 (Mus musculus [15]): 5
CC(C)OCC1=CS(=O)(=O)c2ccccc2C1=O	99.2	11.6	3.19	0.28	–	6	T/C (Mus musculus [4]): 122
O=C1C(CBr)=CS(=O)(=O)c2ccccc21	92.8	10	8.63	0.35	8	–	T/C (Mus musculus [4]): 105
O=C1C(CI)=CS(=O)(=O)c2ccccc21	98	–	9.57	0.15	–	6	–
CCCOCC1=CS(=O)(=O)c2ccccc2C1=O	99.9	–	0.19	0.12	–	6	–
CCNC(=O)OCC1=CS(=O)(=O)c2ccccc2C1=O	99.3	–	1.33	0.38	–	6	–
O=c1cc[s+]([O-])c2ccccc12 (centres undefined)	89.6	–	27.8	0.27	–	6	–
O=COCC1=CS(=O)(=O)c2ccccc2C1=O	91.6	–	4.23	0.57	–	6	–
COCC1=CS(=O)(=O)c2ccccc2C1=O	99.9	12	0.1	0.1	8	–	T/C (Mus musculus [4]): 126
CC(=O)OCC1=CS(=O)(=O)c2ccccc2C1=O	99.5	6.6	2	0.33	8	–	Days (Mus musculus [16]): 10.2; Days (Mus musculus [17]): 11.3; Days (Mus musculus [18]): 11.6; T/C (Mus musculus [4]): 69; T/C (Mus musculus [19]): 107; T/C (Mus musculus [20]): 118; T/C (Mus musculus [21]): 122
CCOCC1=CS(=O)(=O)c2ccccc2C1=O	92.4	12.2	17.8	0.54	8	–	Days (Mus musculus [8]): 9.6; Days (Mus musculus [18]): 10.4; T/C (Mus musculus [22]): 128; T/C (Mus musculus [9]): 101; T/C (Mus musculus [23]): 109
O=C1C(COCCCl)=CS(=O)(=O)c2ccccc21	98.1	–	7.93	0.07	–	6	–
O=C1C(CN2CCOCC2)=CS(=O)(=O)c2ccccc21	0	–	43.3	1.25	8	–	–
O=C1C(COCCBr)=CS(=O)(=O)c2ccccc21	100	–	0	0.05	8	–	–
CC1=C(Br)C(=O)c2ccccc2S1(=O)=O	22.8	–	34.3	2.82	8	–	Days (Mus musculus [8]): 10.2; T/C (Mus musculus [9]): 107
O=C1C=CS(=O)(=O)c2ccccc21	5.5	11.4	42.6	2.78	8	–	T/C (Mus musculus [4]): 120
O=C1C(Br)=CS(=O)(=O)c2ccccc21	69.9	12.4	38.3	0.99	8	–	Days (Mus musculus [24]): 9.4; T/C (Mus musculus [10]): 130; T/C (Mus musculus [25]): 99
O=C1C(CBr)=C(CBr)S(=O)(=O)c2ccccc21	53.9	10.3	37.2	0.76	8	–	% (Mus musculus [26]): 25.2; Inhibition (Mus musculus [26]): 69.9%; T/C (Mus musculus [4]): 108; Volume (Mus musculus [27]): 0.99; Survivors at day 9 (Mus musculus [28]): 8
Cc1sc2ccccc2c(=O)c1CBr	25.8	11.4	42.7	2.1	8	–	T/C (Mus musculus [4]): 120
O=c1[nH]cc(F)c(=O)[nH]1 [FLUOROURACIL]	–	–	–	–	–	–	Days (Mus musculus [29]): 17.6; T/C (Mus musculus [21]): 186
Sc1ncnc2nc[nH]c12 [MERCAPTOPURINE ANHYDROUS]	–	–	–	–	–	–	inhibition in vivo at 200 mg/kg/day (Mus musculus [30]): 99.6%; % (Mus musculus [31]): 0.3; Volume (Mus musculus [32]): 0.7; Survivors at day 9 (Mus musculus [33]): 6
